# Reference: the RepoRT retention time repository
# Test: Agilent ZORBAX 300 SB-C18, 150 × 1 mm, 3.5 µm; A: water + 0.01% heptafluorobutyric acid; B: acetonitrile + 0.01% heptafluorobutyric acid; gradient (min/%B) 0/0 100/90
# Conditions: stereoisomer not certain
row,Compound,LC retention time [min]
1,Cc1ccc(C=NNC(=O)c2ccc(N)cc2)cc1,10.3
2,COc1cccc(C=NNC(=O)c2ccccc2)c1OC,11.7
3,CN(Cc1ccccc1)C(=S)Nc1cccnc1,9.65
4,O=c1[nH]c(N=NCc2ccccc2O)nnc1Cc1ccccc1,11.4
5,c1cc(-c2noc(-c3cnccn3)n2)ccn1,8.8
6,CC12CCC(=O)C=C1CCC1C2CCC2(C)C1CCC2(C)O (centres undefined),14.5
7,O=C(O)Cn1c(=O)c(-c2ccccc2)nc2ccccc21,11.8
8,COc1ccc(C(=O)NCC(=O)NN)cc1OC,7.29
9,Nc1ccc(N)nc1,5.45
10,CN1CCC(OC(=O)Cc2ccccc2)CC1,8.85
11,CC1(C)CC(NC(=S)NC2CCCCC2)CC(C)(C)N1,9.89
12,Cc1ccc(-c2noc(-c3ccc(C)cc3)c2C)cc1,19.3
13,Cn1c(=O)c2c(ncn2C)n(C)c1=O,7.49
14,O=C(O)c1ccncn1,2
15,O=S(=O)(O)CCCN1CCOCC1,1.67
16,Cn1c(-c2c(-c3ccc4ccccc4n3)cnc3ccccc23)nc2ccccc21,12.3
17,C#CCN(CC)CC#C,6.73
18,CCNCCN(C)C,7.47
19,Cn1c(C(c2ccccc2)c2ccccc2)n[nH]c1=S,12.9
20,CCCN1CCC(=O)CC1,6.66
21,CCCCN(CC)CC,7.73
22,CCC(C)C(NC(C)=O)C(=O)O (centres undefined),7.75
23,O=C(CCC1CCCC1)N1CCN(C(=O)COc2ccccc2)CC1,13.7

row,Compound,LC retention time [min]
1,CCN1C(=O)CC(N2CCC(n3c(=O)[nH]c4ccccc43)CC2)C1=O (centres undefined),8.81
2,O=C(O)Cc1c[nH]c(=O)[nH]c1=O,2.17
3,COc1ccccc1-n1c(=O)[nH][nH]c1=O,6.75
4,Cc1cccc(C)c1NC(=S)NCC(C)NC(=S)Nc1c(C)cccc1C (centres undefined),13.9
5,Cc1ccncc1,6.26
6,NC(=O)c1cnc2ccccc2n1,8.31
7,S=c1nccc(-c2ccc3ccccc3c2)[nH]1,10.6
8,COc1cc(C=CC(=O)c2ccc3c(c2)OCO3)cc(OC)c1OC,14.7
9,Cc1ccccc1N,7.59
10,Cc1cccc(-c2ccnc(=S)[nH]2)c1,9.59
11,Cc1cccc2c(=O)cc(-c3ccccc3)oc12,15.4
12,COc1ccc(-c2cnc3ccccc3n2)cc1,14.7
13,CCOc1cc(NC(C)=O)ccc1C(=O)NN=Cc1cccc(Oc2ccccc2)c1,14.3
14,O=C1C(=Cc2cccs2)CCCC1=Cc1cccs1,18.5
15,Cc1ccc(N2CCN(C(=O)C(c3ccccc3)c3ccccc3)CC2)cc1C,17.5
16,Cc1ccc(-c2nc(-c3c[nH]c4ccccc34)[nH]c2-c2ccc(C)cc2)cc1,13.7
17,c1cc(CCCc2ccncc2)ccn1,7.37
18,CN1C2CCC1CC(OC(=O)C(CO)c1ccccc1)C2 (centres undefined),8.92
19,Nc1ccc(C(=O)Nc2cccc3ccccc23)cc1,11.1
20,O=Cc1ccc[nH]1,6.97
21,CCOC(=O)c1ccc(N(CC)CC)cc1,12.5
22,Cc1ccc2[nH]c(=O)c(C=NC(CO)(CO)CO)c(O)c2c1,7.75
23,Cc1cc(C)nc(NC(N)=NCCC(C)C)n1,10.3

row,Compound,LC retention time [min]
1,COc1ccccc1NC(=O)C(c1ccccc1)c1ccccc1,16.6
2,NC(=O)C(O)c1ccccc1 (centres undefined),6.19
3,CCCCCCCCCN(C)C,11.1
4,Nc1nc(N)nc(Cc2ccccc2)n1,7.96
5,CN1CCN(C(=O)c2nn(C)c(=O)c3ccccc23)CC1,7.52
6,CCSc1ccc2c(c1)N(CCCN1CCN(C)CC1)c1ccccc1S2,12.8
7,CCCCCn1c(CCC)nc2ccccc21,11.3
8,CNC(=O)NC,1.96
9,Nc1ccc2cc[nH]c2c1,7.56
10,CCCCCCCCCCCCNC,13.5
11,Cc1nccnc1C,7.59
12,C#CCN(C)C,4.22
13,CN1CCC(=O)C2CCCCC21 (centres undefined),7.15
14,CCCCCCCCCC(N)=O,13.8
15,O=C1CNCC(=O)N1CCc1ccccc1,9.32
16,O=C(c1ccc(-c2ccccc2)cc1)N1CCN(c2ccccc2)CC1,16.5
17,CC(Cc1ccccc1)N(C)Cc1ccccc1 (centres undefined),10.8
18,Cc1ccc2cc(-c3ccncc3)[nH]c2c1,10.2
19,CN1C2CCC1C(C(=O)O)C(OC(=O)c1ccccc1)C2 (centres undefined),8.54
20,c1coc(C2=NCCN2)c1,6.73
21,O=C(O)c1cc(-c2ccncc2)nc2ccccc12,8.16
22,C[N+](C)(N)Cc1ccccc1,7.54
23,CCOC(=O)C(C(C)=NNC(=O)c1ccc(NC(C)=O)cc1)C(C)C (centres undefined),10.8

row,Compound,LC retention time [min]
1,CC(C)c1ccc(C(=O)CCN(C)C)cc1,9.8
2,Cc1ccc(CN2C(=O)CCC2=O)o1,9.52
3,Cc1cccnc1C,6.67
4,CC(C)(C)NCC(O)COc1cccc2c1CC(O)C(O)C2 (centres undefined),8.31
5,CCOC(=O)C=CC(=O)NCCC1=CCCCC1,13.8
6,CC(C)c1ccc(OCC(=O)N2CCC(C(N)=O)CC2)cc1,10.8
7,CC=CC(=O)CC,9.41
8,CN(C)C(CN)c1ccco1 (centres undefined),7.02
9,CCN(CC)CC(CP(=O)(O)O)P(=O)(O)O (centres undefined),1.13
10,Cc1ccc(C(=O)Cn2c(=N)n(C)c3ccccc32)cc1,10.6
11,Cn1c(=O)cc(O)c2ccccc21,9.12
12,N=C(N)N=Nc1ccc(O)cc1,7.38
13,CCOc1cc(C(=O)Nc2ccc(OC)c(OC)c2)cc(OCC)c1OCC,14.4
14,CC(CCc1ccc(O)cc1)NCC(O)c1ccc(O)cc1 (centres undefined),8.93
15,CC(=O)C(=C1NC(C)(C)Cc2cc(C)c(C)cc21)c1ccccc1,17.6
16,Cc1cc(O)c(C(C)C)cc1CNC(=O)c1ccccc1O,14.4
17,Oc1ccc2c(c1)C13CCCCC1(O)C(C2)NCC3 (centres undefined),8.57
18,CNC(C)=O,2.1
19,NC1C(O)OC(CO)C(O)C1O (centres undefined),2.77
20,CCn1ccc(C(C)C)c1-c1ccccc1,19

# The next lines start with the values.
row,LC retention time [min],Compound
1,16,CC(C)NC(=S)N1CCC(Cc2ccccc2)CC1
2,11.6,CN(C)CCCN1c2ccccc2CCc2ccccc21
3,5.51,O=C(O)CCNc1n[nH]c(=O)[nH]c1=O
4,8.59,O=C(Nc1ccccn1)c1cccc(N2C(=O)CCC2=O)c1
5,6.78,CC1=CC(=O)C(C)(C)NC1
6,7.34,O=C1NCCCC1C(=O)N1CCN(C(=O)c2ccco2)CC1 (centres undefined)
7,10.8,CCn1c2ccccc2c2cc(CNC3CC3)ccc21
8,8.19,CCC(C)N1CNc2c(c(=O)[nH]c(=O)n2Cc2ccccc2)C1 (centres undefined)
9,12,O=C1c2ccccc2CN1CCNC(=S)NC1CCCCC1
10,11.6,Nc1cccc2oc3ccccc3c12
11,17.1,O=C(Nc1ccc(Nc2ccccc2)cc1)C(c1ccccc1)c1ccccc1
12,10,CC(C)NCC(O)COc1ccc(COCCOC(C)C)cc1 (centres undefined)
13,13.9,Oc1cccc(N2Cc3ccccc3C2)c1
14,10.2,Cc1ccc(N2CC(C(=O)O)CC2=O)cc1C (centres undefined)
15,2.62,O=c1[nH]c2cc[nH]c(=O)c2[nH]1
16,9.57,Nc1ccc2oc3c(c2c1)CCCC3
17,6.71,CC(C)CC(N)C(N)=O (centres undefined)
18,16.6,COc1ccc(C=CC(=O)C=Cc2ccc(OC)cc2OC)c(OC)c1
19,11,CSc1cccc2cccnc12
20,7.61,CN(C)CCN(C)CCN(C)CCN(C)C

row,LC retention time [min],Compound
1,8.46,O=C(O)CC(C(=O)O)c1c[nH]c2ccccc12 (centres undefined)
2,17.1,CC1(C)CC(=O)c2c(-c3ccccc3)nc3ccc4ccccc4c3c2C1
3,7.68,CCNc1ccccc1
4,8.98,CN(C)CCOC(C)(c1ccccc1)c1ccccn1 (centres undefined)
5,2.5,C[N+](C)(C)c1cnc(=O)[nH]c1
6,6.55,NC(=S)CCc1ccccn1
7,7.28,NC(=O)C1(N2CCCCC2)CCN(C(=O)CN2CCNCC2)CC1
8,9.91,O=C1CC(N2CCN(Cc3ccccc3)CC2)C(=O)N1Cc1ccccc1 (centres undefined)
9,15,COC(=O)c1ccccc1-c1cc(C(=O)OC)c2ccccc2n1
10,11.4,O=C(Nc1ccc(Cc2ccncc2)cc1)c1ccc2ccccc2n1
11,12.5,CC(=O)c1c(C(C)=O)c(C)n(CCc2c[nH]c3ccccc23)c1C
12,10.5,CCc1ccc(N2CC(C(=O)O)CC2=O)cc1 (centres undefined)
13,16.2,CCCOC(=O)c1ccc(NC(=O)c2ccc(C)cc2)cc1
14,19.2,Cc1c(-c2ccccc2)cc(-c2ccccc2)nc1-c1ccccc1
15,10.9,Cc1cccc(C(=O)C=CN(C)C)c1
16,9.41,CN(C)c1ccc(C=NNC(=O)c2cccc(N)c2)cc1
17,16.5,Cc1ccc(Nc2ccccc2)cc1
18,12.4,Cc1cc(C)c2ccc3ccccc3c2n1
19,6.19,O=C(O)CC(NCc1ccccc1)C(=O)O (centres undefined)
20,15,CCCCN(C)C(=O)Cn1c(=O)c2c(C)cc(C)nc2n(-c2ccccc2)c1=O
